Experiments:
KIT = target: T1, KIT (Homo sapiens, UniProt P10721); assay: Competition binding assay, KIT Kd; details: competition binding
T1 construct: made in house
Method in brief: (§1)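 Kd values came from eleven-point threefold dilutions of compound, measured by qPCR of kinase eluted from affinity-ligand beads after 1 h equilibrium binding at room temperature. Kinase was either T7-phage fused or HEK-293-expressed with a DNA tag.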

CSF1R = CSF1R (Homo sapiens, UniProt P07333); assay: Competition binding assay, CSF1R Kd; design: made in house; details: competition binding
Chain of CSF1R (P07333 20-972): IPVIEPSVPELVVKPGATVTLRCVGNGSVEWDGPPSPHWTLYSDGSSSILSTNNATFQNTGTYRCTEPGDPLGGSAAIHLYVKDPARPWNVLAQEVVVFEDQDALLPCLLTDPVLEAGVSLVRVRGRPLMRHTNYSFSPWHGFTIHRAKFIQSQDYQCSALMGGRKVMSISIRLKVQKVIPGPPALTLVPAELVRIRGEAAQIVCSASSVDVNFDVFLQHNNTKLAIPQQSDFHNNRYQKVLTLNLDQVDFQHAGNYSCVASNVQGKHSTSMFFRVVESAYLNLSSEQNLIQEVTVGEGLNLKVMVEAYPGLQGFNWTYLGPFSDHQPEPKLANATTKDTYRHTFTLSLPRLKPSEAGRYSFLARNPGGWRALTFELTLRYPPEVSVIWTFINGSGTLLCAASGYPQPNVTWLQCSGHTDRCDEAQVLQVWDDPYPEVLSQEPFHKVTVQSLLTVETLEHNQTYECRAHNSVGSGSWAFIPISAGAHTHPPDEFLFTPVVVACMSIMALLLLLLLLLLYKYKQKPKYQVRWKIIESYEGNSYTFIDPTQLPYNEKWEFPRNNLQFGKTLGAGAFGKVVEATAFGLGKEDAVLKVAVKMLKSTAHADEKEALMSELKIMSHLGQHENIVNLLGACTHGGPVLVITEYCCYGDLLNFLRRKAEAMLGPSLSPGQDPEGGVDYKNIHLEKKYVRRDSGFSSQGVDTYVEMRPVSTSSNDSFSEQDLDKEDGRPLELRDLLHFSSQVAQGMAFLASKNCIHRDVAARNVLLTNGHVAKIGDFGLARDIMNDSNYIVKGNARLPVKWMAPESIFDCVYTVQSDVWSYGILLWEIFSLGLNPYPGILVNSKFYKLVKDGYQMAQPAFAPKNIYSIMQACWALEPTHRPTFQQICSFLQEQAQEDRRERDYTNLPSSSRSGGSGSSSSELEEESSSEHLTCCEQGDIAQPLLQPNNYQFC
Method in brief: as §1

M-NFS-60 cells = assay: M-NFS-60 cell proliferation assay (Alamar Blue); type: cell-based, mouse; details: Mus musculus; M-NFS-60 cell proliferation; read-out: CSF1R M-NFS-60 CTB:IC50
Method in brief: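 Mouse M-NFS-60 cells growing on 20 ng/mL M-CSF in RPMI/10% FBS were exposed to compounds (9 half-log concentrations, 0.5% DMSO) for 72 h at 37 °C. Viability read by Alamar Blue fluorescence (ex 560/em 590 nm, 3 h). IC50 = 50% proliferation inhibition versus control, mean of duplicates.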

[1] = target: kinase panel containing either 386 or 392 distinct kinases; assay: Kinase selectivity score S10 from competition binding panel; details: 10 μM, panel of 386 or 392 distinct kinases
Method in brief: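 Compounds at 10 μM competed against immobilised affinity ligands for T7 phage-fused or HEK-293-expressed DNA-tagged kinases, 1 h at room temperature; bound kinase eluted and quantified by qPCR. S10 = fraction of distinct non-mutant kinases with percent of DMSO control below 10.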

FLT3 = target: T2, FLT3 (Homo sapiens, UniProt P36888); assay: Competition binding assay, FLT3 Kd; details: competition binding
T2 construct: made in house
T2 sequence (P36888 27-993): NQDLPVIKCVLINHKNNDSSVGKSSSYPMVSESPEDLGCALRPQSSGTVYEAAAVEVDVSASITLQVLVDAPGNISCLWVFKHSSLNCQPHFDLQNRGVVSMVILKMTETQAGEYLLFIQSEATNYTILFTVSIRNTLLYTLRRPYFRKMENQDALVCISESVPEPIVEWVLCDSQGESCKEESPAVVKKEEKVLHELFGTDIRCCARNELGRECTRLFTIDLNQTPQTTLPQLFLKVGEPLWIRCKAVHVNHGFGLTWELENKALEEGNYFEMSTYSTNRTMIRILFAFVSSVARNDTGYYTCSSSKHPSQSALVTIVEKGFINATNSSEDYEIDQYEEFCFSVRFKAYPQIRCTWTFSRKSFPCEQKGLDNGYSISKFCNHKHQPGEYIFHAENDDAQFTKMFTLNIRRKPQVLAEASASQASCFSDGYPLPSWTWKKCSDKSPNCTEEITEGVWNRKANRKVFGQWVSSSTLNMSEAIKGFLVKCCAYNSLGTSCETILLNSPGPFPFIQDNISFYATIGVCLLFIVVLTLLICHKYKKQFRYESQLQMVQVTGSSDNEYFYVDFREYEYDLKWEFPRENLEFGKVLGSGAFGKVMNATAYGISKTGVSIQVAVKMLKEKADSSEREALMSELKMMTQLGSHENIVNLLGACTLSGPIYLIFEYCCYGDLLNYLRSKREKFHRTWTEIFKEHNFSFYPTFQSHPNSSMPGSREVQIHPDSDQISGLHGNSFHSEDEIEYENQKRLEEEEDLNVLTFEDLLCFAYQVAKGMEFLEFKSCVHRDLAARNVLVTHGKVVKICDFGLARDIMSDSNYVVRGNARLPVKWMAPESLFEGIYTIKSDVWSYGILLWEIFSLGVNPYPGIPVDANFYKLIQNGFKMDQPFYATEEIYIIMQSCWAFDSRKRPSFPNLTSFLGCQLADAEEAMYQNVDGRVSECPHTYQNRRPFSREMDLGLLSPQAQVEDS
Method in brief: as §1

PDGFRβ = target: T3, PDGFRβ (Homo sapiens, UniProt P09619); assay: Competition binding assay, PDGFRβ Kd; details: competition binding
T3 construct: made in house
T3 sequence (P09619 33-1106): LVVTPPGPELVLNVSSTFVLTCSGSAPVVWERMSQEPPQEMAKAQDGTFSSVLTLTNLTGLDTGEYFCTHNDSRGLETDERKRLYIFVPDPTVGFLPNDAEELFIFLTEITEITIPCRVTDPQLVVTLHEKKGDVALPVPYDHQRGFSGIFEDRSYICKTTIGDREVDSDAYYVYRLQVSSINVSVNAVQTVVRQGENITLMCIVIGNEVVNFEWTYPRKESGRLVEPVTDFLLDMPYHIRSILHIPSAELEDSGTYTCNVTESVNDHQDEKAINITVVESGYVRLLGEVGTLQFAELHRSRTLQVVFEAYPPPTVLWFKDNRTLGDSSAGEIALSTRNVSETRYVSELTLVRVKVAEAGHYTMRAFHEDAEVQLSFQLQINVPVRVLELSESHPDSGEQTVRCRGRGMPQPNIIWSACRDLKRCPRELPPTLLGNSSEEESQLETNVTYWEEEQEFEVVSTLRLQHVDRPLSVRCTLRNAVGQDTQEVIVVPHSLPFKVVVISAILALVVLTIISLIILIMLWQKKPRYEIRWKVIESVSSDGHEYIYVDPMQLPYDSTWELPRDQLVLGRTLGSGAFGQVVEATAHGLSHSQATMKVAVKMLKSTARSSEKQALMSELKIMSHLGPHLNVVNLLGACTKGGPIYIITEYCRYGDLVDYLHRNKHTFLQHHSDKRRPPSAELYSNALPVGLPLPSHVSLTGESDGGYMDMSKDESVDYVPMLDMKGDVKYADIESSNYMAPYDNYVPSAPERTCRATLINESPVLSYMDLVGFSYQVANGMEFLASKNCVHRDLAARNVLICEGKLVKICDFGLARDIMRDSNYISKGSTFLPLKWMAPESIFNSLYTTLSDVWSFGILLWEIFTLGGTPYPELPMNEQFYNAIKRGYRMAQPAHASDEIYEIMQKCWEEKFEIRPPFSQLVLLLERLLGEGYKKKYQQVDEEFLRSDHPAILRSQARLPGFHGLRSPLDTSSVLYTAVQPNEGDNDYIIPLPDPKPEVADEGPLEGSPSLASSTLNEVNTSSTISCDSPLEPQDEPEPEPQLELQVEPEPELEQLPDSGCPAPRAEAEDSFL
Method in brief: as §1

T1 sequence (P10721 26-976): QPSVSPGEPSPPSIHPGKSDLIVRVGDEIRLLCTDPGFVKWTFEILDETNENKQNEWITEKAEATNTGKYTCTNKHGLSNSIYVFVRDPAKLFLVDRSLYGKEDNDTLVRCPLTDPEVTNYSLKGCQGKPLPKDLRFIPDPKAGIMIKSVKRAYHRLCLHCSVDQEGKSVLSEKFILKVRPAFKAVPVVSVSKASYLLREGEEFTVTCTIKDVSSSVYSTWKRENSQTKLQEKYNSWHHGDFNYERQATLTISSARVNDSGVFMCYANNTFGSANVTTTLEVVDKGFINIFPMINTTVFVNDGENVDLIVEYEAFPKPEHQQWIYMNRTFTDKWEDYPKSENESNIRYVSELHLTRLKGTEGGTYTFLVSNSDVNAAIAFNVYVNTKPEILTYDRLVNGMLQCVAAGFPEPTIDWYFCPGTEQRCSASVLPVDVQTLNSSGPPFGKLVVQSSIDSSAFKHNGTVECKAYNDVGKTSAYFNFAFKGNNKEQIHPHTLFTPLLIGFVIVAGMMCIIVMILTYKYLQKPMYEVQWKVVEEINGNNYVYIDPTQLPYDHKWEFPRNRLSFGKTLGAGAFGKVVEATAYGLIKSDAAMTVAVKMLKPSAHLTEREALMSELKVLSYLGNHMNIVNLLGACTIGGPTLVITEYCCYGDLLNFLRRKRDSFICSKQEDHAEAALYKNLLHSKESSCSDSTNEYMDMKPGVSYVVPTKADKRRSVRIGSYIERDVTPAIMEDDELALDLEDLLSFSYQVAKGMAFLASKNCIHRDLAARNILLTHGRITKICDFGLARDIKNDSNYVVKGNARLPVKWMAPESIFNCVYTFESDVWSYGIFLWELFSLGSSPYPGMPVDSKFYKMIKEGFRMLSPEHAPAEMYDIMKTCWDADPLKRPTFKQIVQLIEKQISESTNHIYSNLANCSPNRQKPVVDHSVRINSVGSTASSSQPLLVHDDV

SMILES | Kd (KIT) | Kd (CSF1R) | IC50 (M-NFS-60 cells) | Kinase specificity S(10) [1] | Kd (FLT3) | Kd (PDGFRβ)
Cn1cc(-c2ccc3c(c2)ncn3Cc2ccc3nc(N[C@@H]4CCCC[C@H]4O)sc3c2)c(C(F)(F)F)n1 [Example 185, (1R,2R)-2-((6-((5-(1-methyl-3-(trifluoromethyl)-1H-pyrazol-4-yl)-1H-benzo[d]imidazol-1-yl)methyl)benzo[d]thiazol-2-yl)amino)cyclohexanol] | ≤ 100 nM | 5 to 20 nM | 50 to 400 nM | B (0.01<B≤0.02) | ≤ 200 nM | ≤ 50 nM
CN1CCN(c2ccn3c(Cc4ccc5nc(N[C@@H]6CCCC[C@H]6O)sc5c4)cnc3c2)CC1 [Example 188, (1R,2R)-2-((6-((7-(4-methylpiperazin-1-yl)imidazo[1,2-a]pyridin-3-yl)methyl)benzo[d]thiazol-2-yl)amino)cyclohexanol] | > 2000 nM | 5 to 20 nM | 400 to 1500 nM | A (A≤0.01) | 1000 to 5000 nM | 500 to 2000 nM
O[C@@H]1CCCC[C@H]1Nc1nc2ccc(Cn3cnc4cnc(C(F)(F)F)nc43)cc2s1 [Example 105, (1R,2R)-2-((6-((2-(trifluoromethyl)-9H-purin-9-yl)methyl)benzo[d]thiazol-2-yl)amino)cyclohexanol] | 500 to 2000 nM | 5 to 20 nM | 400 to 1500 nM | A (A≤0.01) | 200 to 1000 nM | 500 to 2000 nM
Cc1cc(C)c2c(c1)ncn2Cc1ccc2nc(N[C@@H]3CCCC[C@H]3O)sc2c1 [Example 189] | 500 to 2000 nM | 5 to 20 nM | 50 to 400 nM | A (A≤0.01) | 200 to 1000 nM | 500 to 2000 nM
CC(C)(O)C#Cc1cnc2c(c1)ncn2Cc1ccc2nc(N[C@@H]3CCCC[C@H]3O)sc2c1 [Example 104, (1R,2R)-2-((6-((6-(3-hydroxy-3-methylbut-1-yn-1-yl)-3H-imidazo[4,5-b]pyridin-3-yl)methyl)benzo[d]thiazol-2-yl)amino)cyclohexanol] | ≤ 100 nM | ≤ 5 nM | ≤ 50 nM | A (A≤0.01) | ≤ 200 nM | ≤ 50 nM
N#Cc1cc2ncn(Cc3ccc4nc(N[C@@H]5CCCC[C@H]5O)oc4c3)c2cc1Cl [Example 195, 6-chloro-1-((2-(((1R,2R)-2-hydroxycyclohexyl)amino)benzo[d]oxazol-6-yl)methyl)-1H-benzo[d]imidazole-5-carbonitrile] | 500 to 2000 nM | 20 to 50 nM | 400 to 1500 nM | A (A≤0.01) | 1000 to 5000 nM | 500 to 2000 nM
OC[C@H]1CCC[C@@H](Nc2nc3ccc(Cn4cnc5cc(F)cnc54)cc3s2)C1 [Example 194, ((1S,3R)-3-((6-((6-fluoro-3H-imidazo[4,5-b]pyridin-3-yl)methyl)benzo[d]thiazol-2-yl)amino)cyclohexyl)methanol] | ≤ 100 nM | 5 to 20 nM | 50 to 400 nM | B (0.01<B≤0.02) | 200 to 1000 nM | ≤ 50 nM
O[C@@H]1[C@H](O)CCC[C@H]1Nc1nc2ccc(Cn3cnc4cc(F)cnc43)cc2s1 [Example 193, (1R,2S,3R)-3-((6-((6-fluoro-3H-imidazo[4,5-b]pyridin-3-yl)methyl)benzo[d]thiazol-2-yl)amino)cyclohexane-1,2-diol] | ≤ 100 nM | 5 to 20 nM | ≤ 50 nM | A (A≤0.01) | 1000 to 5000 nM | ≤ 50 nM
O[C@@H]1CCCC[C@H]1Nc1nc2ccc(Cc3cnc4cc(N5CCOCC5)ccn34)cc2s1 [Example 187, (1R,2R)-2-((6-((7-morpholinoimidazo[1,2-a]pyridin-3-yl)methyl)benzo[d]thiazol-2-yl)amino)cyclohexanol] | > 2000 nM | 5 to 20 nM | 400 to 1500 nM | A (A≤0.01) | > 5000 nM | 500 to 2000 nM
Fc1cnc2c(c1)ncn2Cc1ccc2nc(Nc3ccccc3)sc2c1 [Example 191, 6-((6-fluoro-3H-imidazo[4,5-b]pyridin-3-yl)methyl)-N-phenylbenzo[d]thiazol-2-amine] | 100 to 500 nM | 20 to 50 nM | > 1500 nM | A (A≤0.01) | 1000 to 5000 nM | 500 to 2000 nM
Cc1cc(Br)cc2ncn(Cc3ccc4nc(N[C@@H]5CCCC[C@H]5O)sc4c3)c12 [Example 190, (1R,2R)-2-((6-((5-bromo-7-methyl-1H-benzo[d]imidazol-1-yl)methyl)benzo[d]thiazol-2-yl)amino)cyclohexanol] | 500 to 2000 nM | 20 to 50 nM | 50 to 400 nM | A (A≤0.01) | 200 to 1000 nM | 500 to 2000 nM
OC[C@H]1CC[C@@H](Nc2nc3ccc(Cn4cnc5cc(F)cnc54)cc3s2)CC1 [Example 180, (cis-4-((6-((6-fluoro-3H-imidazo[4,5-b]pyridin-3-yl)methyl)benzo[d]thiazol-2-yl)amino)cyclohexyl)methanol] | 100 to 500 nM | 20 to 50 nM | > 1500 nM | A (A≤0.01) | 1000 to 5000 nM | 50 to 500 nM
CN1CCN(c2ccc3ncc(Cc4ccc5nc(N[C@@H]6CCCC[C@H]6O)sc5c4)n3n2)CC1 [Example 178, (1R,2R)-2-((6-((6-(4-methylpiperazin-1-yl)imidazo[1,2-b]pyridazin-3-yl)methyl)benzo[d]thiazol-2-yl)amino)cyclohexanol] | 500 to 2000 nM | 5 to 20 nM | 400 to 1500 nM | B (0.01<B≤0.02) | 200 to 1000 nM | 500 to 2000 nM
C=Cc1ccc2c(c1)ncn2Cc1ccc2nc(N[C@@H]3CCCC[C@H]3O)sc2c1 [Example 183, (1R,2R)-2-((6-((5-vinyl-1H-benzo[d]imidazol-1-yl)methyl)benzo[d]thiazol-2-yl)amino)cyclohexanol] | ≤ 100 nM | ≤ 5 nM | ≤ 50 nM | B (0.01<B≤0.02) | 200 to 1000 nM | 50 to 500 nM
O[C@@H]1CCCC[C@H]1Nc1nc2ccc(Cn3cnc4cc(C5=CCCCC5)ccc43)cc2s1 [Example 184, (1R,2R)-2-((6-((5-(cyclohex-1-en-1-yl)-1H-benzo[d]imidazol-1-yl)methyl)benzo[d]thiazol-2-yl)amino)cyclohexanol] | ≤ 100 nM | 5 to 20 nM | 50 to 400 nM | A (A≤0.01) | 200 to 1000 nM | 50 to 500 nM
OC[C@@H]1CCC[C@@H](Nc2nc3ccc(Cn4cnc5cc(F)cnc54)cc3s2)C1 [Example 192, ((1R,3R)-3-((6-((6-fluoro-3H-imidazo[4,5-b]pyridin-3-yl)methyl)benzo[d]thiazol-2-yl)amino)cyclohexyl)methanol] | 100 to 500 nM | 5 to 20 nM | 400 to 1500 nM | B (0.01<B≤0.02) | 1000 to 5000 nM | ≤ 50 nM
CS[C@@H]1CCCC[C@H]1Nc1nc2ccc(Cn3cnc4cc(F)cnc43)cc2s1 [Example 181, 6-((6-fluoro-3H-imidazo[4,5-b]pyridin-3-yl)methyl)-N-((1R,2R)-2-(methylthio)cyclohexyl)benzo[d]thiazol-2-amine] | 100 to 500 nM | 5 to 20 nM | 400 to 1500 nM | B (0.01<B≤0.02) | 1000 to 5000 nM | ≤ 50 nM
OC[C@H]1CC[C@H](Nc2nc3ccc(Cn4cnc5cc(F)cnc54)cc3s2)CC1 [Example 179, (trans-4-((6-((6-fluoro-3H-imidazo[4,5-b]pyridin-3-yl)methyl)benzo[d]thiazol-2-yl)amino)cyclohexyl)methanol] | ≤ 100 nM | 5 to 20 nM | 400 to 1500 nM | B (0.01<B≤0.02) | 1000 to 5000 nM | ≤ 50 nM
